From article PMC11956013, “Structure–Activity Relationships and Evaluation of 2-(Heteroaryl-cycloalkyl)-1H-indoles as Tauopathy Positron Emission Tomography Radiotracers” (Journal of Medicinal Chemistry, 2025)
Values joined by “and” are separate entries in the source; they are usually repeats but may differ in a detail not shown here. Equal entries are not always repeated. Where two headings read alike, the source gives them in different places. Blank lines part the entries; values can stand above or below the compound they belong to.

How the values were obtained:
[1] = molecular target: Ca2+ channel (L, dihydropyridine site) (Rattus norvegicus, UniProt P22002); assay: Eurofins panel: Ca2+ channel (L, dihydropyridine site) (antagonist radioligand); settings: reference compound
D1 (h) = D1 (h) (Homo sapiens, UniProt P21728); settings: Specific binding; reference compound
M3 (h) = M3 (h) (Homo sapiens, UniProt P20309); settings: Specific binding; reference compound
Sequence of M3 (h) (P20309 whole entry): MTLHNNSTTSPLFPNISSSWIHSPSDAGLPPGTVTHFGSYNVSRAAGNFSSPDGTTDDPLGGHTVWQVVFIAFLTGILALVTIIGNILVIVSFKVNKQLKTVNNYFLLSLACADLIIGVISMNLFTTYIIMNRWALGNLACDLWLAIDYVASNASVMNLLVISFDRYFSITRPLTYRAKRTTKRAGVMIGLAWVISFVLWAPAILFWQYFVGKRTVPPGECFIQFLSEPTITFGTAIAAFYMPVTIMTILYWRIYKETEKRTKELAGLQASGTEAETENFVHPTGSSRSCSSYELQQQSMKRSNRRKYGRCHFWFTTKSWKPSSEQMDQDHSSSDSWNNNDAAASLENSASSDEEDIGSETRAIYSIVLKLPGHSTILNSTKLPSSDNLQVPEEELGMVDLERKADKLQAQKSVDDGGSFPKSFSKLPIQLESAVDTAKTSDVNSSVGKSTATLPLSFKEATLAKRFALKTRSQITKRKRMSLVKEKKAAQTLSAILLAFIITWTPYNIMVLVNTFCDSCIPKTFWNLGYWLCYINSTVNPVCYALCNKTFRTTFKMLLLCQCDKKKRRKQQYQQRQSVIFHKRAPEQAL

M5 (h) = molecular target: T1, M5 (h) (Homo sapiens, UniProt P08912); assay: M5 (h) (antagonist radioligand), Eurofins assay 97; settings: Specific binding, reference compound
T1 sequence (P08912 1-532): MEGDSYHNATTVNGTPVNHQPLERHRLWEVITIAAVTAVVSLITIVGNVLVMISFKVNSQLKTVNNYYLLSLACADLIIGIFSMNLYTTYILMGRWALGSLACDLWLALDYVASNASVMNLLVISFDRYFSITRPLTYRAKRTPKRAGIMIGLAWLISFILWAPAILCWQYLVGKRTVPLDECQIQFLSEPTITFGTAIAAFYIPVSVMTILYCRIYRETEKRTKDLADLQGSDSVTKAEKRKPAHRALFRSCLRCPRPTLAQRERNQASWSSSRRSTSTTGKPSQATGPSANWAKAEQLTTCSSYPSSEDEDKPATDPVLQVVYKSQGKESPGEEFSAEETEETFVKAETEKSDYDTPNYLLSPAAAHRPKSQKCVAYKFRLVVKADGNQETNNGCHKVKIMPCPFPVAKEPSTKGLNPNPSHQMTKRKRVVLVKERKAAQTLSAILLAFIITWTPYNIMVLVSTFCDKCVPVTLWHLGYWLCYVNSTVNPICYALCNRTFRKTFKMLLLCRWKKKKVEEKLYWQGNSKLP

M4 (h) = M4 (h) (Homo sapiens, UniProt P08173); assay: M4 (h) (antagonist radioligand), Eurofins assay 96; settings: Specific binding; reference compound
Sequence of M4 (h) (P08173 whole entry): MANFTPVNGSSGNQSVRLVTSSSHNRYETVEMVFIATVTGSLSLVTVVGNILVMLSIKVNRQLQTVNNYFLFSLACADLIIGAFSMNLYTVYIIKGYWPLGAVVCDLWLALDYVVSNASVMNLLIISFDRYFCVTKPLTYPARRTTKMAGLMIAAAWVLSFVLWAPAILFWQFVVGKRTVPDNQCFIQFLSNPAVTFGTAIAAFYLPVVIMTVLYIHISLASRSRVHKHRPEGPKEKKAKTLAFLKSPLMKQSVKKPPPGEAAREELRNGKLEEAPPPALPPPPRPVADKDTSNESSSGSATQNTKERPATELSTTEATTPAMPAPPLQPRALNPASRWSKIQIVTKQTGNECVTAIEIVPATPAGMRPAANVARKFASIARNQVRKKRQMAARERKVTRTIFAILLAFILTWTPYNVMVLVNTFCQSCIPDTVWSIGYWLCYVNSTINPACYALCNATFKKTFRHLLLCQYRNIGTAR

[2] = molecular target: Adenosine Guinea Pig Transporter (Cavia porcellus, UniProt H0V4R7); assay: Adenosine Guinea Pig Transporter Mass Spectrometry Binding (Antagonist Ligand) Assay, Cerep; settings: reference compound
[3] = molecular target: Non-Selective Rat Glycine Ion Channel (Rattus norvegicus, UniProt P07727); assay: Non-Selective Rat Glycine Ion Channel Strychnine Mass Spectrometry Binding Assay, Cerep
Sequence of Non-Selective Rat Glycine Ion Channel (P07727 29-457): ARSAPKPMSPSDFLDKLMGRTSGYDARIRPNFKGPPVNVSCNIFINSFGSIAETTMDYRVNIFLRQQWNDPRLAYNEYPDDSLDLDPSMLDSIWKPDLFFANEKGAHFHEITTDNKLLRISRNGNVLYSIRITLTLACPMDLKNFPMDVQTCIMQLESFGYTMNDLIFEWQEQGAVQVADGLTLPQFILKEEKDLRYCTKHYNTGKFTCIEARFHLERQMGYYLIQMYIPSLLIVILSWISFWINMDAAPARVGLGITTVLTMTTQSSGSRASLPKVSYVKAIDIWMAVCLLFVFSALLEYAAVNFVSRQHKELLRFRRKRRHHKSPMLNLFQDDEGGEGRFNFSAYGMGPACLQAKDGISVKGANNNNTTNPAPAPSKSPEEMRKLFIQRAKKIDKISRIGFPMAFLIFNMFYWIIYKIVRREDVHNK
Sequence of Non-Selective Rat Glycine Ion Channel (P20781 23-496 partner): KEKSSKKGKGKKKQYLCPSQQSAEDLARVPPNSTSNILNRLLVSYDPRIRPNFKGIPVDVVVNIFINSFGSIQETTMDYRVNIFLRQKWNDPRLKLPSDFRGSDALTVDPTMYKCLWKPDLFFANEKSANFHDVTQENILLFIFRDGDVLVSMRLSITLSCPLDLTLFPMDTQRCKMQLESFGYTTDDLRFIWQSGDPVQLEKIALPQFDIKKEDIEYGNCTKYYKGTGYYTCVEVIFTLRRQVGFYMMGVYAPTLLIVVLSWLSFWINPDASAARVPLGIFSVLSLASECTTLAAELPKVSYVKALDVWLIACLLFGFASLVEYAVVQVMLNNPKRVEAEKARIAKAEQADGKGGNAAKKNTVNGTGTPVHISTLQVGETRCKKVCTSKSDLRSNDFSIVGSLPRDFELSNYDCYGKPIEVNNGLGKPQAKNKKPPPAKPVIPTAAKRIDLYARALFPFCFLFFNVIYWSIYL

CYP2D6 = CYP2D6 (Homo sapiens, UniProt P10635); settings: In Vitro Metabolism; HLM, Dextromethorphan substrate; reference compound
CYP2C19 = CYP2C19 (Homo sapiens, UniProt P33261); settings: In Vitro Metabolism; HLM, Omeprazole substrate; reference compound
Sequence of CYP2C19 (P33261 whole entry): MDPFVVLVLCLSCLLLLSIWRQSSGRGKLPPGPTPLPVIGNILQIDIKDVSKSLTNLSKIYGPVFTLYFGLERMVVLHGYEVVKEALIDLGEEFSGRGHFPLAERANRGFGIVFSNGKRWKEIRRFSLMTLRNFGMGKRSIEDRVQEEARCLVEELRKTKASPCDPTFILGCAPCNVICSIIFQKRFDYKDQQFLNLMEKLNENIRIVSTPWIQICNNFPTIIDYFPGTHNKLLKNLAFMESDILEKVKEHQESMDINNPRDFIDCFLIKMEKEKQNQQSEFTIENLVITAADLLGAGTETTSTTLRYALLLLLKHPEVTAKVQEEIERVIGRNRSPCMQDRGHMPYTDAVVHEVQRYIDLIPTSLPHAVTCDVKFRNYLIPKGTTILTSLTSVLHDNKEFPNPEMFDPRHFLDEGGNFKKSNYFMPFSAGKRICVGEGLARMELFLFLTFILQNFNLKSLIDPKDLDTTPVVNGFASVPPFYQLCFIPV

CYP1A2 = CYP1A2 (Homo sapiens, UniProt P05177); settings: In Vitro Metabolism; HLM, Tacrine substrate; reference compound
Sequence of CYP1A2 (P05177 whole entry): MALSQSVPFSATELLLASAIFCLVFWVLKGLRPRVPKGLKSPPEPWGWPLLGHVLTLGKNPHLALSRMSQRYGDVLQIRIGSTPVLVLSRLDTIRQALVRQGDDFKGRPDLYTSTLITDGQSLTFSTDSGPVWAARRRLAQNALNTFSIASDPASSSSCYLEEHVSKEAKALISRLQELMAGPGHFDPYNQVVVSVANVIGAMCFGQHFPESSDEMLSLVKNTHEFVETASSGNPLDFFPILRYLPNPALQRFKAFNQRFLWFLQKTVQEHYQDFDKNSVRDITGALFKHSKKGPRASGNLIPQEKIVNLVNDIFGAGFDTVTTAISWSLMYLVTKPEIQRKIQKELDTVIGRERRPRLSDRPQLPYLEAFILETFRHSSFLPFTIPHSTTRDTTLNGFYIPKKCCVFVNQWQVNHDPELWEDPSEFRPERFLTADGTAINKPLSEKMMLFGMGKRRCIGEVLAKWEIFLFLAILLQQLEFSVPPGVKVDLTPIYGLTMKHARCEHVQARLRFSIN

[4] = molecular target: T2, aggregated tau (mixed 3R/4R-tau) in AD brain tissue homogenates (Homo sapiens, UniProt P10636); assay: In vitro competition (Ki) assay versus [^3H]7, AD brain tissue homogenate; assay type: binding; settings: radioligand [^3H]7 ∼1 nM
Target sequence in this assay (P10636 623-695 limits assumed): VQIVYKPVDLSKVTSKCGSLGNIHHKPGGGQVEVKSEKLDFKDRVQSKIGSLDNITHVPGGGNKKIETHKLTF

[5] = molecular target: T3, aggregated tau (4R-tau) in PSP brain tissue homogenates (Homo sapiens, UniProt P10636); assay: In vitro competition (Ki) assay versus [^3H]7, PSP brain tissue homogenate; assay type: binding; settings: radioligand [^3H]7 ∼1 nM
T3 construct: from tissue
T3 sequence (P10636 1-441 isoform P10636-8): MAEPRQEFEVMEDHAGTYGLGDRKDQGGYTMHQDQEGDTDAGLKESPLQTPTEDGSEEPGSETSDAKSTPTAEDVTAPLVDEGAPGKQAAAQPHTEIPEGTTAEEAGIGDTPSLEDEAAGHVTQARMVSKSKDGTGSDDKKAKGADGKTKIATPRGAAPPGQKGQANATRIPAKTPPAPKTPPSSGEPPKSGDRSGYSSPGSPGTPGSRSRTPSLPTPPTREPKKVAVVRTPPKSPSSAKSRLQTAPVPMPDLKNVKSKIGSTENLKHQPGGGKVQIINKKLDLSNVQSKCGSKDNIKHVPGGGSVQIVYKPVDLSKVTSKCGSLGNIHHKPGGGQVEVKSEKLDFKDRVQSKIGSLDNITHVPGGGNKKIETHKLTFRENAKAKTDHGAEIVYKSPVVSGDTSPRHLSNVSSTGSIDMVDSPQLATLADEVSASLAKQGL

[6] = molecular target: T4, aggregated tau (4R-tau) in CBD brain tissue homogenates (Homo sapiens, UniProt P10636); assay: In vitro competition (Ki) assay versus [^3H]3, CBD brain tissue homogenate; assay type: binding; set-up: from tissue; host or cells: post-mortem human CBD brain, middle frontal gyrus homogenate; settings: radioligand [^3H]3 ∼1 nM
T4 sequence (P10636 1-441 isoform P10636-8): as above

[7] = molecular target: T3, aggregated tau (4R-tau) in PSP brain tissue homogenates; assay: In vitro competition (Ki) assay versus [^3H]8, PSP brain tissue homogenate; assay type: binding; settings: radioligand [^3H]8 ∼1 nM
[8] = molecular target: T3, aggregated tau (4R-tau) in PSP brain tissue homogenates; assay: In vitro competition (Ki) assay versus [^3H]3, PSP brain tissue homogenate; assay type: binding; settings: radioligand [^3H]3 ∼1 nM
[9] = molecular target: T4, aggregated tau (4R-tau) in CBD brain tissue homogenates; assay: biochemical
[10] = molecular target: T2, aggregated tau (mixed 3R/4R-tau) in AD brain tissue homogenates; assay: In vitro competition (Ki) assay versus [^3H]3, AD brain tissue homogenate; assay type: binding; settings: radioligand [^3H]3 ∼1 nM
Target sequence in this assay (P10636 623-695 limits assumed): as the sequence (P10636 623-695 limits assumed) above

[11] = molecular target: T2, aggregated tau (mixed 3R/4R-tau) in AD brain tissue homogenates; assay: In vitro competition (Ki) assay versus [^3H]8, AD brain tissue homogenate; assay type: binding; settings: radioligand [^3H]8 ∼1 nM
Target sequence in this assay (P10636 623-708 limits assumed): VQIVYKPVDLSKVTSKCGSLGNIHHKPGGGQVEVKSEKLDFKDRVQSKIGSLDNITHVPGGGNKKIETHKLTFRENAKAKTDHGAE

D2L (h) = D2L (h) (Homo sapiens, UniProt P14416); settings: Specific binding; reference compound
[12] = molecular target: COMT (catechol- O-methyl transferase); assay: COMT (catechol- O-methyl transferase), Eurofins assay 457; assay type: biochemical; settings: Enzymatic activity; reference compound; read-out: Concurrent IC50
[13] = molecular target: T3, aggregated tau (4R-tau) in PSP brain tissue homogenates; assay: In vitro competition (Ki) assay versus [^3H]75, PSP brain tissue homogenate; assay type: binding; settings: PSP brain tissue homogenate; radioligand [^3H]75; n = 3, mean ± SD
[14] = molecular target: T4, aggregated tau (4R-tau) in CBD brain tissue homogenates; set-up: from tissue; host or cells: post-mortem human CBD brain, middle frontal gyrus homogenate; method as in earlier work; settings: CBD brain tissue homogenate; radioligand [^3H]3; read-out: Ki versus [^3H]3, CBD tissue; cited from earlier work
[15] = molecular target: T3, aggregated tau (4R-tau) in PSP brain tissue homogenates; set-up: method as in earlier work; settings: PSP brain tissue homogenate; radioligand [^3H]3; read-out: Ki versus [^3H]3, PSP tissue; cited from earlier work
[16] = molecular target: T4, aggregated tau (4R-tau) in CBD brain tissue homogenates; settings: read-out: Ki versus [^3H]8, CBD tissue; CBD brain tissue homogenate; radioligand [^3H]8 ∼1 nM
[17] = molecular target: T4, aggregated tau (4R-tau) in CBD brain tissue homogenates; assay: In vitro competition (Ki) assay versus [^3H]75, CBD brain tissue homogenate; assay type: binding; set-up: from tissue; host or cells: post-mortem human CBD brain, middle frontal gyrus homogenate; settings: CBD brain tissue homogenate; radioligand [^3H]75; n = 3, mean ± SD
[18] = molecular target: T2, aggregated tau (mixed 3R/4R-tau) in AD brain tissue homogenates; assay: In vitro competition (Ki) assay versus [^3H]75, AD brain tissue homogenate; assay type: binding; settings: AD brain tissue homogenate; radioligand [^3H]75; n = 3, mean ± SD
Target sequence in this assay (P10636 623-695 limits assumed): as the sequence (P10636 623-695 limits assumed) above

[19] = molecular target: T2, aggregated tau (mixed 3R/4R-tau) in AD brain tissue homogenates; set-up: method as in earlier work; settings: AD brain tissue homogenate; radioligand [^3H]3; read-out: Ki versus [^3H]3, AD tissue; cited from earlier work
Target sequence in this assay (P10636 623-695 limits assumed): as above

[20] = molecular target: T5, aggregated tau (3R-tau) in PiD brain tissue homogenates (Homo sapiens, UniProt P10636); assay: In vitro competition (Ki) assay versus [^3H]75, PiD brain tissue homogenate; assay type: binding; settings: PiD brain tissue homogenate; radioligand [^3H]75; n = 3, mean ± SD
T5 construct: or only 3R-tau aggregates (PiD middle frontal gyrus); from tissue; host or cells: post-mortem human PiD brain, middle frontal gyrus homogenate
T5 sequence (P10636 1-410 isoform P10636-5): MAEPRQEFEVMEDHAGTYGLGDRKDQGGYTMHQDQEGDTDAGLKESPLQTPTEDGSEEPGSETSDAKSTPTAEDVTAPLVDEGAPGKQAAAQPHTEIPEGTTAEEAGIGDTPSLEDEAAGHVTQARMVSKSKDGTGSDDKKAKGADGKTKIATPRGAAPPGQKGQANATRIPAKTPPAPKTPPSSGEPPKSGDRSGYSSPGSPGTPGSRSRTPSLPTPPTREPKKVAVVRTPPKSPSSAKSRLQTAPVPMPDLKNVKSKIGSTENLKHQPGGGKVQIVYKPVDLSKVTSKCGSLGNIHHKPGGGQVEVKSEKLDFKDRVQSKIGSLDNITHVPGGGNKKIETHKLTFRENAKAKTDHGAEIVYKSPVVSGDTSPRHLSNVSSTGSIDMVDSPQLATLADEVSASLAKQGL

[21] = molecular target: T4, aggregated tau (4R-tau) in CBD brain tissue homogenates; settings: read-out: Ki versus [^3H]7, CBD tissue; CBD brain tissue homogenate; radioligand [^3H]7 ∼1 nM
M2 (h) = M2 (h) (Homo sapiens, UniProt P08172); settings: Specific binding; reference compound
GR (h) = GR (h) (Homo sapiens, UniProt P04150); settings: Specific binding; reference compound
Sequence of GR (h) (P04150 whole entry): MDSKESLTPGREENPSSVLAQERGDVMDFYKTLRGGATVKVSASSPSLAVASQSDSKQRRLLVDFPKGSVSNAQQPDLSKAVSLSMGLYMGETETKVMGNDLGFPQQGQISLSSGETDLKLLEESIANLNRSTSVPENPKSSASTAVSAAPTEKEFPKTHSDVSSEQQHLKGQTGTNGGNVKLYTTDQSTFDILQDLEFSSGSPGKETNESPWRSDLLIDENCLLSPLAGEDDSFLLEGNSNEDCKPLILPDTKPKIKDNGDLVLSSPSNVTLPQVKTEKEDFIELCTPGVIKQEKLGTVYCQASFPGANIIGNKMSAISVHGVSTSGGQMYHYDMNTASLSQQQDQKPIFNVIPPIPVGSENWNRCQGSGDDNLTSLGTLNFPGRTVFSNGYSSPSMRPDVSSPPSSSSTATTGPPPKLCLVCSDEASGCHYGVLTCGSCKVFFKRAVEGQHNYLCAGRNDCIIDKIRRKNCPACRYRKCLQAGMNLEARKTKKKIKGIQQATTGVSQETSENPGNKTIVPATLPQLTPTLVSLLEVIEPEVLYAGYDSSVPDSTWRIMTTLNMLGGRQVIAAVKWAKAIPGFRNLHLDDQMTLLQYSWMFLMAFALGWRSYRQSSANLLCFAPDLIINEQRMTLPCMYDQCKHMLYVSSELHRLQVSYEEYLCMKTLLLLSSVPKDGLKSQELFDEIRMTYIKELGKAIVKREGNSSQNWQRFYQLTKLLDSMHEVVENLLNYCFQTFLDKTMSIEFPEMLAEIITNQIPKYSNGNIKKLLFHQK

MT1 (ML1A) (h) = MT1 (ML1A) (h) (Homo sapiens, UniProt P48039); assay: Eurofins panel: MT1 (ML1A) (h) (agonist radioligand); assay type: binding; set-up: purchased Eurofins (CNS SafetyScreen panel, contract assay) assay 1538; settings: reference compound

Compound: CCOC(=O)C1=C(C)NC(C)=C(C(=O)OC)C1c1cccc([N+](=O)[O-])c1 (centres unmarked) [nitrendipine]
nH, Specific binding [1]: 1.077

Compound: CN1CCc2cc(Cl)c(O)cc2[C@@H](c2ccccc2)C1 [SCH 23390]
nH (D1 (h)): 1.03

Compound: C[N+]1(C)CCC(OC(=O)C(c2ccccc2)c2ccccc2)CC1.[I-] [Compound 4-DAMP]
nH (M3 (h)): 1.577 | nH (M5 (h)): 1.178 | IC50 (M5 (h); read-out: Concurrent IC50): 2.35 nM | Ki (M5 (h); read-out: Concurrent Ki): 1.17 nM | nH (M4 (h)): 1.959

Compound: COc1cc(C(=O)OCCCN2CCCN(CCCOC(=O)c3cc(OC)c(OC)c(OC)c3)CC2)cc(OC)c1OC [Dilazep]
nH, Specific binding [2]: 1.337

Compound: N=C(N)N/N=C/c1c(Cl)cccc1Cl [guanabenz]
nH, Specific binding [3]: 1.024

Compound: C=C[C@H]1C[N@@]2CC[C@H]1C[C@@H]2[C@@H](O)c1ccnc2ccc(OC)cc12 [Quinidine]
nH (CYP2D6): 0.9681

Compound: CCN(CC)CC#CCOC(=O)C(O)(c1ccccc1)C1CCCCC1 (centres unmarked) [Oxybutynin]
nH (CYP2C19): 0.7474

Compound: Cc1nc2c([nH]1)c(=O)n(C)c(=O)n2Cc1ccco1 [Furafylline]
nH (CYP1A2): 0.9709

Ki [4]: 11 nM | Ki [5]: 8.9 nM | Ki [6]: 40 nM | Ki [7]: 11 nM | Ki [8]: 37 nM | Ki [9]: 15 nM | Ki [10]: 33 nM | Ki [11]: 10 nM
Compound: O[C@H]1CCN(c2ccc(-c3cc4ccc(F)cc4[nH]3)cn2)C1 [Compound 9, reference compound]

Compound: CC(C)(C)[C@]1(O)CCN2C[C@H]3c4ccccc4CCc4cccc(c43)[C@@H]2C1 [butaclamol]
nH (D2L (h)): 0.9951

Compound: Ro 41-0960
IC50 [12]: 23 nM

Ki [4]: 8.4 nM | Ki [13]: ~15 nM and 15 nM | Ki [5]: 13 nM | Ki [16]: 11 ± 1.3 nM | Ki [7]: 8.5 ± 1.2 nM | Ki [17]: 16 nM | Ki [18]: ~15 nM and 15 nM | Ki [20]: ~24 nM and 24 nM | Ki [21]: 11 nM | Ki [11]: 7.7 ± 0.6 nM
Compound: Fc1ccc2cc(-c3cnc(N4CCOCC4)nc3)[nH]c2c1 [Compound 8]
Ki [14]: 19 nM | Ki [15]: 18 nM | Ki [19]: 22 nM

nH (M2 (h)): 1.382
Compound: COc1ccccc1CNCCCCCCNCCCCCCCCNCCCCCCNCc1ccccc1OC [methoctramine]

Compound: C[C@@H]1C[C@H]2[C@@H]3CCC4=CC(=O)C=C[C@]4(C)[C@@]3(F)[C@@H](O)C[C@]2(C)[C@@]1(O)C(=O)CO [dexamethasone]
nH (GR (h)): 1.051

Compound: COc1ccc2[nH]cc(CCNC(C)=O)c2c1 [melatonin]
nH, Specific binding (MT1 (ML1A) (h)): 1.177
